Organism: Rattus norvegicus
Assay: Open TG-GATES - Regimen: Daily Repeat
Format: toxicity, organism-based, Sprague-Dawley
Parameters: regimen Daily Repeat, gender Male, age 6 weeks
Details: in vivo, po, 0 mg/kg, route gavage, dose level Control; for APTT / Bas / Eos / Fbg / Hb / Ht / Lym / MCH / MCHC / MCV / Mono / Neu / PT / Plat / RBC / Ret / WBC: tissue Blood; for KIDNEY_L / KIDNEY_R / KIDNEY_TOTAL: tissue Kidney; for LIVER: tissue Liver; for A/G / ALP / ALT / AST / BUN / CRE / Ca / Cl / DBIL / GLC / IP / K / LDH / Na / PL / RALB / TBIL / TC / TG / TP / gamma-GTP: tissue Plasma

O=C(O)c1cc(/N=N/c2ccc(S(=O)(=O)Nc3ccccn3)cc2)ccc1O [SULFASALAZINE]
TERMINAL_BW (72 h, time 3 day): 237.4 g | APTT (72 h, time 3 day): 18.3 s | Bas (72 h, time 3 day): 0% | Eos (72 h, time 3 day): 1% | Fbg (72 h, time 3 day): 245.4 mg/dL | Hb (72 h, time 3 day): 13.3 g/dL | Ht (72 h, time 3 day): 38.5% | Lym (72 h, time 3 day): 78.2% | MCH (72 h, time 3 day): 22 pg | MCHC (72 h, time 3 day): 34.7% | MCV (72 h, time 3 day): 63.5 fL | Mono (72 h, time 3 day): 3% | Neu (72 h, time 3 day): 16.8% | PT (72 h, time 3 day): 12.4 s | Plat (72 h, time 3 day): 125.9 x10_4/uL | RBC (72 h, time 3 day): 607.8 x10_4/ul | Ret (72 h, time 3 day): 6.3% | WBC (72 h, time 3 day): 93.4 x10_2/uL | KIDNEY_L (72 h, time 3 day): 1 g | KIDNEY_R (72 h, time 3 day): 1 g | KIDNEY_TOTAL (72 h, time 3 day): 2 g | LIVER (72 h, time 3 day): 11.2 g | A/G (72 h, time 3 day): 1.4 | ALP (72 h, time 3 day): 938.8 IU/L | ALT (72 h, time 3 day): 39.8 IU/L | AST (72 h, time 3 day): 74.2 IU/L | BUN (72 h, time 3 day): 16.6 mg/dL | CRE (72 h, time 3 day): 0.4 mg/dL | Ca (72 h, time 3 day): 11 mg/dL | Cl (72 h, time 3 day): 102.6 meq/L | DBIL (72 h, time 3 day): 0.1 mg/dL | GLC (72 h, time 3 day): 207.4 mg/dL | IP (72 h, time 3 day): 7.3 mg/dL | K (72 h, time 3 day): 4 meq/L | LDH (72 h, time 3 day): 226.6 IU/L | Na (72 h, time 3 day): 140.6 meq/L | PL (72 h, time 3 day): 157 mg/dL | RALB (72 h, time 3 day): 3.4 g/dL | TBIL (72 h, time 3 day): 0.2 mg/dL | TC (72 h, time 3 day): 75.6 mg/dL | TG (72 h, time 3 day): 104 mg/dL | TP (72 h, time 3 day): 5.7 g/dL | gamma-GTP (72 h, time 3 day): 1.2 IU/L | TERMINAL_BW ([…], time 7 day): 263.5 g | TERMINAL_BW ([…], time 14 day): 308.2 g | TERMINAL_BW ([…], time 28 day): 377.2 g | APTT ([…], time 7 day): 19.2 s | Bas ([…], time 7 day): 0% | Eos ([…], time 7 day): 1% | Fbg ([…], time 7 day): 223.4 mg/dL | Hb ([…], time 7 day): 14.1 g/dL | Ht ([…], time 7 day): 41.1% | Lym ([…], time 7 day): 81.6% | MCH ([…], time 7 day): 21.5 pg | MCHC ([…], time 7 day): 34.2% | MCV ([…], time 7 day): 62.8 fL | Mono ([…], time 7 day): 2.6% | Neu ([…], time 7 day): 14.2% | PT ([…], time 7 day): 12.3 s | Plat ([…], time 7 day): 129.3 x10_4/uL | RBC ([…], time 7 day): 655 x10_4/ul | Ret ([…], time 7 day): 5.5% | WBC ([…], time 7 day): 126 x10_2/uL | APTT ([…], time 14 day): 19.7 s | Bas ([…], time 14 day): 0% | Eos ([…], time 14 day): 1% | Fbg ([…], time 14 day): 229.4 mg/dL | Hb ([…], time 14 day): 14.7 g/dL | Ht ([…], time 14 day): 41.7% | Lym ([…], time 14 day): 78.4% | MCH ([…], time 14 day): 20.9 pg | MCHC ([…], time 14 day): 35.3% | MCV ([…], time 14 day): 59.2 fL | Mono ([…], time 14 day): 2.4% | Neu ([…], time 14 day): 16.8% | PT ([…], time 14 day): 12.2 s | Plat ([…], time 14 day): 115.1 x10_4/uL | RBC ([…], time 14 day): 703.6 x10_4/ul | Ret ([…], time 14 day): 3.9% | WBC ([…], time 14 day): 92.7 x10_2/uL | APTT ([…], time 28 day): 20.6 s | Bas ([…], time 28 day): 0% | Eos ([…], time 28 day): 0.8% | Fbg ([…], time 28 day): 217.8 mg/dL | Hb ([…], time 28 day): 15.6 g/dL | Ht ([…], time 28 day): 43.1% | Lym ([…], time 28 day): 83.8% | MCH ([…], time 28 day): 20.1 pg | MCHC ([…], time 28 day): 36.2% | MCV ([…], time 28 day): 55.6 fL | Mono ([…], time 28 day): 1.4% | Neu ([…], time 28 day): 12.4% | PT ([…], time 28 day): 12.5 s | Plat ([…], time 28 day): 98.7 x10_4/uL | RBC ([…], time 28 day): 775.4 x10_4/ul | Ret ([…], time 28 day): 2.3% | WBC ([…], time 28 day): 97.9 x10_2/uL | KIDNEY_L ([…], time 7 day): 1.1 g | KIDNEY_R ([…], time 7 day): 1.1 g | KIDNEY_TOTAL ([…], time 7 day): 2.2 g | KIDNEY_L ([…], time 14 day): 1.2 g | KIDNEY_R ([…], time 14 day): 1.2 g | KIDNEY_TOTAL ([…], time 14 day): 2.4 g | KIDNEY_L ([…], time 28 day): 1.3 g | KIDNEY_R ([…], time 28 day): 1.3 g | KIDNEY_TOTAL ([…], time 28 day): 2.5 g | LIVER ([…], time 7 day): 12 g | LIVER ([…], time 14 day): 13.3 g | LIVER ([…], time 28 day): 14.8 g | A/G ([…], time 7 day): 1.4 | ALP ([…], time 7 day): 884.4 IU/L | ALT ([…], time 7 day): 33 IU/L | AST ([…], time 7 day): 64.6 IU/L | BUN ([…], time 7 day): 16.8 mg/dL | CRE ([…], time 7 day): 0.4 mg/dL | Ca ([…], time 7 day): 10.7 mg/dL | Cl ([…], time 7 day): 103.4 meq/L | DBIL ([…], time 7 day): 0.092 mg/dL | GLC ([…], time 7 day): 233.6 mg/dL | IP ([…], time 7 day): 7.5 mg/dL | K ([…], time 7 day): 3.5 meq/L | LDH ([…], time 7 day): 218.6 IU/L | Na ([…], time 7 day): 140.8 meq/L | PL ([…], time 7 day): 160.4 mg/dL | RALB ([…], time 7 day): 3.4 g/dL | TBIL ([…], time 7 day): 0.1 mg/dL | TC ([…], time 7 day): 78.8 mg/dL | TG ([…], time 7 day): 99.8 mg/dL | TP ([…], time 7 day): 5.9 g/dL | gamma-GTP ([…], time 7 day): 1.2 IU/L | A/G ([…], time 14 day): 1.3 | ALP ([…], time 14 day): 900.6 IU/L | ALT ([…], time 14 day): 43.4 IU/L | AST ([…], time 14 day): 76.6 IU/L | BUN ([…], time 14 day): 18.6 mg/dL | CRE ([…], time 14 day): 0.5 mg/dL | Ca ([…], time 14 day): 10.6 mg/dL | Cl ([…], time 14 day): 103.4 meq/L | DBIL ([…], time 14 day): 0.1 mg/dL | GLC ([…], time 14 day): 189.8 mg/dL | IP ([…], time 14 day): 6.4 mg/dL | K ([…], time 14 day): 3.8 meq/L | LDH ([…], time 14 day): 292 IU/L | Na ([…], time 14 day): 140.4 meq/L | PL ([…], time 14 day): 155 mg/dL | RALB ([…], time 14 day): 3.3 g/dL | TBIL ([…], time 14 day): 0.2 mg/dL | TC ([…], time 14 day): 63.2 mg/dL | TG ([…], time 14 day): 175.8 mg/dL | TP ([…], time 14 day): 6 g/dL | gamma-GTP ([…], time 14 day): 1.2 IU/L | A/G ([…], time 28 day): 1.3 | ALP ([…], time 28 day): 718.2 IU/L | ALT ([…], time 28 day): 49.2 IU/L | AST ([…], time 28 day): 80.6 IU/L | BUN ([…], time 28 day): 17.8 mg/dL | CRE ([…], time 28 day): 0.5 mg/dL | Ca ([…], time 28 day): 10.3 mg/dL | Cl ([…], time 28 day): 103.6 meq/L | DBIL ([…], time 28 day): 0.1 mg/dL | GLC ([…], time 28 day): 217.6 mg/dL | IP ([…], time 28 day): 6.1 mg/dL | K ([…], time 28 day): 3.7 meq/L | LDH ([…], time 28 day): 287.2 IU/L | Na ([…], time 28 day): 141.2 meq/L | PL ([…], time 28 day): 148.4 mg/dL | RALB ([…], time 28 day): 3.4 g/dL | TBIL ([…], time 28 day): 0.2 mg/dL | TC ([…], time 28 day): 68.8 mg/dL | TG ([…], time 28 day): 151.4 mg/dL | TP ([…], time 28 day): 6.2 g/dL | gamma-GTP ([…], time 28 day): 0.8 IU/L
